Here are results for 29 molecules from patent US20240360151A1 (SANOFI, priority 2023, published 2024).

Assay [1] has as its system NF-kB pathway (TNF-α secretion by THP-1 cells). The assay can be described thus: TNF-α secretion assay in LPS-stimulated THP-1 cells, Lumit immunoassay. It counts as cell-based, human. The following applies: monocytic THP-1 cells, LPS 10 ng/mL, relative IC50, 10 concentrations, geometric mean. Summed up:
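THP-1 monocytes in RPMI with 5% FBS were treated with compound, then stimulated with 10 ng/mL LPS for 3 h. Secreted TNF-α was measured in-plate by Lumit immunoassay. Relative IC50 came from 10-concentration curves fitted with a 4-parameter logistic model, reported as geometric mean.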

For the next assay, the target named is T1, NLRP3 inflammasome (Homo sapiens, UniProt Q96P20).
T1 construct: endogenous in cells; host or cells: THP-1 monocytic cells
As to the kind of experiment: IL-1β secretion assay (NLRP3 IC50) in LPS-primed, nigericin-activated THP-1 cells, HTRF. The following applies: monocytic THP-1 cells; LPS 10 ng/mL 3 h priming, then compound + nigericin 10 μM 2 h; relative IC50, 10 concentrations, geometric mean. The assay is classed as cell-based. Summed up: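 THP-1 cells primed with LPS 10 ng/mL for 3 h at 37° C., then compound (10-point 1:3 dilution, 0.1% DMSO) added with 10 μM nigericin for 2 h. Supernatant IL-1β measured by HTRF; relative IC50 from a 4-parameter logistic fit, reported as geometric mean.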
A general note: TR-FRET usually uses a lanthanide donor and a delayed reading to cut background.

SMILES strings stand for the structures.

T1 sequence (Q96P20 whole entry): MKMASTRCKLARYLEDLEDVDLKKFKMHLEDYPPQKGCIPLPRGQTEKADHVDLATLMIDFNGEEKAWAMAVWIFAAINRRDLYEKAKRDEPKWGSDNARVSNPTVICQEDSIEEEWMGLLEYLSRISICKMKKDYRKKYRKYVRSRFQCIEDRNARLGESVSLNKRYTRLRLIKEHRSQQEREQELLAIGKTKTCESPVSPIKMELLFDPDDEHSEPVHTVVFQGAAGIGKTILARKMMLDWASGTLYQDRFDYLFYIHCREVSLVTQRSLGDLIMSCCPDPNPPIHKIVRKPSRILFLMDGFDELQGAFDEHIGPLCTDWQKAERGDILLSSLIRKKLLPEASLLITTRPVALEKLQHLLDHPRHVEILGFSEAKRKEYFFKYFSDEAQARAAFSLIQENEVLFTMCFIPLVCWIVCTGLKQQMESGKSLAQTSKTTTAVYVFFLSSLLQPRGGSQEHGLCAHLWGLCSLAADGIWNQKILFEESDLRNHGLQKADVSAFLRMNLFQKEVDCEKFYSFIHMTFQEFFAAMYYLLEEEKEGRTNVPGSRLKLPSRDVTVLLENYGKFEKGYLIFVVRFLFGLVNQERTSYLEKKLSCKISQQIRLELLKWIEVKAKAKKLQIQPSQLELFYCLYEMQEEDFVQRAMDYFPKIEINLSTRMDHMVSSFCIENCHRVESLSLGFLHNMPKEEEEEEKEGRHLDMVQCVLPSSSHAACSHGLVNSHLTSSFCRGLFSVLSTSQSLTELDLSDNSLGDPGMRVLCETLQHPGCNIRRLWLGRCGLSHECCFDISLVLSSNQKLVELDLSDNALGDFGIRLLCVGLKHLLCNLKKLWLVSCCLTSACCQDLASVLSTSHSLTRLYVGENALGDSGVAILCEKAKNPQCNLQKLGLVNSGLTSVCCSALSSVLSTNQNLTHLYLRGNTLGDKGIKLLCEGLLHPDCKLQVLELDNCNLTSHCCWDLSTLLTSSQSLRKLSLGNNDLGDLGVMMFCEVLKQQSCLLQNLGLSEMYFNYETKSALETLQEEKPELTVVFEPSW

As to `Cc1ccc(-c2nnc(N3CCO[C@@H]4CCNC[C@@H]43)cc2C(F)F)c(O)c1` [Example 322, 2-[6-[(4aS,8aR)-2,3,4a,5,6,7,8,8a-octahydropyrido[4,3-b][1,4]oxazin-4-yl]-4-(difluoromethyl)pyridazin-3-yl]-5-methyl-phenol], the IC50 in assay [1] (Homo sapiens, THP-1, 3 h) is more than 10000 nM; on NLRP3 inflammasome it was 80 nM.

Consider `CC(C)c1cc(N2CCO[C@H](CO)C2)nnc1-c1ccc(Cl)cc1O` [Example 75, 5-chloro-2-[6-[(2S)-2-(hydroxymethyl)morpholin-4-yl]-4-isopropyl-pyridazin-3-yl]phenol], for which the IC50 in assay [1] (Homo sapiens, THP-1, 3 h) is 9600 nM; on NLRP3 inflammasome, 183 nM.

As to `CNC(=O)C[C@@H]1CN(c2ccc(-c3c(C)cc(C)cc3O)nn2)CCO1` (single isomer, unassigned) [Example 142], the IC50 was more than 10000 nM in assay [1] (Homo sapiens, THP-1, 3 h) and 360 nM at NLRP3 inflammasome.

Consider `COc1cc(C)c(-c2nnc(N3CCO[C@H](CO)C3)cc2C)c(O)c1` [Example 119, 2-[6-[(2S)-2-(hydroxymethyl)morpholin-4-yl]-4-methyl-pyridazin-3-yl]-5-methoxy-3-methyl-phenol], for which the 50% inhibitory concentration (IC50) in assay [1] (Homo sapiens, THP-1, 3 h) was more than 10000 nM; on NLRP3 inflammasome it was 561 nM.

`CCc1cc(C(F)(F)F)cc(O)c1-c1ccc(N2CCO[C@H](CO)C2)nn1` [Example 418, 3-ethyl-2-[6-[(2S)-2-(hydroxymethyl)morpholin-4-yl]pyridazin-3-yl]-5-(trifluoromethyl)phenol]: the concentration for half-maximal inhibition (IC50) in assay [1] (Homo sapiens, THP-1, 3 h) is more than 10000 nM; at NLRP3 inflammasome, 13 nM.

As to `Cc1cc(C(F)(F)F)cc(O)c1-c1ccc(N2CCO[C@H](C)C2)nn1` [Example 258, 3-methyl-2-[6-[(2R)-2-methylmorpholin-4-yl]pyridazin-3-yl]-5-(trifluoromethyl)phenol], the IC50 in assay [1] (Homo sapiens, THP-1, 3 h) is more than 10000 nM; on NLRP3 inflammasome it was 30 nM.

In the case of `Cc1cc(OC(F)(F)F)cc(O)c1-c1ccc(N2CCO[C@H](CO)C2)nn1` [Example 121, 2-[6-[(2S)-2-(hydroxymethyl)morpholin-4-yl]pyridazin-3-yl]-3-methyl-5-(trifluoromethoxy)phenol], the IC50 in assay [1] (Homo sapiens, THP-1, 3 h) is more than 10000 nM; at NLRP3 inflammasome, 92 nM.

For `Cc1cc(C(F)(F)F)cc(O)c1-c1ccc(N2CC[C@H]3CN(C)C[C@H]32)nn1` (single isomer, unassigned) [Example 270], the IC50 was more than 10000 nM in assay [1] (Homo sapiens, THP-1, 3 h) and 493 nM on NLRP3 inflammasome.

Take `Cc1cc(Cl)cc(O)c1-c1cc(C(F)F)c(N2CCO[C@H](CO)C2)nn1` [Example 171, 5-chloro-2-[5-(difluoromethyl)-6-[(2S)-2-(hydroxymethyl)morpholin-4-yl]pyridazin-3-yl]-3-methyl-phenol]: the 50% inhibitory concentration (IC50) in assay [1] (Homo sapiens, THP-1, 3 h) is more than 10000 nM; on NLRP3 inflammasome, 7 nM.

Take `CCc1cccc(O)c1-c1ccc(N2CCO[C@@H]3CCN(C(C)C)C[C@@H]32)nn1` [Example 432, 2-[6-[(4aS,8aR)-6-isopropyl-3,4a,5,7,8,8a-hexahydro-2H-pyrido[4,3-b][1,4]oxazin-4-yl]pyridazin-3-yl]-3-ethyl-phenol]: the half-inhibitory concentration (IC50) is more than 10000 nM in assay [1] (Homo sapiens, THP-1, 3 h) and 5 nM on NLRP3 inflammasome.

As for `Cc1cc(C)c(-c2ccc(N3CCO[C@@H]4COCC[C@H]43)nn2)c(O)c1` (racemic) [Example 154, 3,5-dimethyl-2-[6-[rac-(4aR,8aS)-3,4a,5,7,8,8a-hexahydro-2H-pyrano[3,4-b][1,4]oxazin-1-yl]pyridazin-3-yl]phenol], the IC50 was more than 10000 nM in assay [1] (Homo sapiens, THP-1, 3 h) and 344 nM at NLRP3 inflammasome.

As for `[2H]C([2H])(O)[C@@H]1CN(c2ccc(-c3c(C)cc(Cl)cc3O)nn2)CCO1` [Example 169, 5-chloro-2-[6-[(2S)-2-[dideuterio(hydroxy)methyl]morpholin-4-yl]pyridazin-3-yl]-3-methylphenol], the concentration for half-maximal inhibition (IC50) is more than 10000 nM in assay [1] (Homo sapiens, THP-1, 3 h) and 8 nM on NLRP3 inflammasome.

Take `CC(=O)NCCC1CN(c2ccc(-c3c(C)cc(C(F)(F)F)cc3O)nn2)CCO1` (single isomer, unassigned) [Example 277, N-[2-[4-[6-[2-hydroxy-6-methyl-4-(trifluoromethyl)phenyl]pyridazin-3-yl]morpholin-2-yl]ethyl]acetamide]: the IC50 in assay [1] (3 hours) was 2040 nM; on NLRP3 inflammasome, 51 nM.

`CCc1cccc(O)c1-c1ccc(N2CC[C@H]3CCN(C)C[C@H]32)nn1` (single isomer, unassigned) [Example 423]: the 50% inhibitory concentration (IC50) in assay [1] (Homo sapiens, THP-1, 3 h) was more than 10000 nM; at NLRP3 inflammasome it was 0.48 nM.

On to `CCN1CC[C@H]2OCCN(c3cc(C)c(-c4ccc(Cl)cc4O)nn3)[C@H]2C1` [Example 437, 2-[6-[(4aS,8aR)-6-ethyl-3,4a,5,7,8,8a-hexahydro-2H-pyrido[4,3-b][1,4]oxazin-4-yl]-4-methyl-pyridazin-3-yl]-5-chloro-phenol], for which the 50% inhibitory concentration (IC50) is more than 10000 nM in assay [1] (Homo sapiens, THP-1, 3 h) and 1 nM on NLRP3 inflammasome.

Take `Cc1cc(C(F)(F)F)cc(O)c1-c1ccc(N2CCOC(CN(C)C)C2)nn1` (single isomer, unassigned) [Example 60, 2-[6-[-2-[(dimethylamino)methyl]morpholin-4-yl]pyridazin-3-yl]-3-methyl-5-(trifluoromethyl)phenol]: the concentration for half-maximal inhibition (IC50) in assay [1] (Homo sapiens, THP-1, 3 h) was more than 10000 nM; at NLRP3 inflammasome it was 386 nM.

For `Oc1cc(Cl)cc(Cl)c1-c1ccc(N2CCOC(CF)C2)nn1` (stereo not shown) [Example 161, 3,5-dichloro-2-[6-[2-(fluoromethyl)morpholin-4-yl]pyridazin-3-yl]phenol], the IC50 in assay [1] (Homo sapiens, THP-1, 3 h) is more than 10000 nM; at NLRP3 inflammasome, 28 nM.

As to `Cc1cc(N2CCO[C@@H]3CCN(C)C[C@@H]32)nnc1-c1cccc(F)c1O` [Example 356, 2-[6-[(4aS,8aR)-6-methyl-3,4a,5,7,8,8a-hexahydro-2H-pyrido[4,3-b][1,4]oxazin-4-yl]-4-methyl-pyridazin-3-yl]-6-fluoro-phenol], the IC50 in assay [1] (Homo sapiens, THP-1, 3 h) was more than 10000 nM; on NLRP3 inflammasome, 61 nM.

As to `Cc1cc(C)c(-c2ccc(N3CCO[C@H]4CCNC[C@H]43)nn2)c(O)c1` [Example 314, 2-[6-[(4aR,8aS)-2,3,4a,5,6,7,8,8a-octahydropyrido[4,3-b][1,4]oxazin-4-yl]pyridazin-3-yl]-3,5-dimethyl-phenol], the half-inhibitory concentration (IC50) is more than 10000 nM in assay [1] (Homo sapiens, THP-1, 3 h) and 18 nM on NLRP3 inflammasome.

Consider `Cc1cc(C(F)(F)F)cc(O)c1-c1ccc(N2CCO[C@H]3CCN(C)C[C@@H]32)nn1` (single isomer, unassigned) [Example 343], for which the 50% inhibitory concentration (IC50) in assay [1] (Homo sapiens, THP-1, 3 h) was more than 10000 nM; on NLRP3 inflammasome, 47 nM.

For the molecule `Cc1cccc(O)c1-c1ccc(N2CCO[C@H]3CCN(C)C[C@H]32)nn1` [Example 299, 2-[6-[(4aR,8aS)-6-methyl-3,4a,5,7,8,8a-hexahydro-2H-pyrido[4,3-b][1,4]oxazin-4-yl]pyridazin-3-yl]-3-methyl-phenol], the IC50 in assay [1] (Homo sapiens, THP-1, 3 h) is more than 10000 nM; at NLRP3 inflammasome, 15 nM.

For `Cc1cc(C(F)(F)F)cc(O)c1-c1ccc(N2CCO[C@@H]3CCN(C4CCC4)C[C@@H]32)nn1` (single isomer, unassigned) [Example 13], the IC50 in assay [1] (Homo sapiens, THP-1, 3 h) is more than 10000 nM; on NLRP3 inflammasome it was 2 nM.

Turning to `CC(=O)NC[C@@H]1CN(c2ccc(-c3c(C)cc(Cl)cc3O)nn2)CCO1` [Example 267, N-[[(2R)-4-[6-(4-chloro-2-hydroxy-6-methyl-phenyl)pyridazin-3-yl]morpholin-2-yl]methyl]acetamide], the IC50 was more than 10000 nM in assay [1] (Homo sapiens, THP-1, 3 h) and 185 nM at NLRP3 inflammasome.

With `Cc1cc(C)c(-c2ccc(N3CCO[C@H]4CCN(C)C[C@H]43)nn2)c(O)c1` (racemic) [Example 225, 2-[6-[rac-(4aR,8aS)-6-methyl-3,4a,5,7,8,8a-hexahydro-2H-pyrido[4,3-b][1,4]oxazin-4-yl]pyridazin-3-yl]-3,5-dimethyl-phenol], the half-inhibitory concentration (IC50) in assay [1] (Homo sapiens, THP-1, 3 h) was more than 10000 nM; on NLRP3 inflammasome, 3 nM.

For `CC(=O)NC[C@H]1CCCN(c2ccc(-c3c(C)cc(Cl)cc3O)nn2)C1` [Example 212, N-[[(3R)-1-[6-(4-chloro-2-hydroxy-6-methyl-phenyl)pyridazin-3-yl]-3-piperidyl]methyl]acetamide], the concentration for half-maximal inhibition (IC50) in assay [1] (Homo sapiens, THP-1, 3 h) was more than 10000 nM; at NLRP3 inflammasome, 39 nM.

Turning to `Cc1cc(C)c(-c2ccc(N3CCC[C@@H](N)C3)nn2)c(O)c1` [Example 31, 2-[6-[(3R)-3-amino-1-piperidyl]pyridazin-3-yl]-3,5-dimethyl-phenol; formic acid], the IC50 was more than 10000 nM in assay [1] (Homo sapiens, THP-1, 3 h) and 520 nM on NLRP3 inflammasome.

`Cc1cc(N2CCO[C@@H]3CCN(C)C[C@@H]32)nnc1-c1ccc(C(F)(F)F)cc1O` [Example 430, 2-[6-[(4aS,8aR)-6-methyl-3,4a,5,7,8,8a-hexahydro-2H-pyrido[4,3-b][1,4]oxazin-4-yl]-4-methyl-pyridazin-3-yl]-5-(trifluoromethyl)phenol]: the IC50 in assay [1] (Homo sapiens, THP-1, 3 h) is more than 10000 nM; at NLRP3 inflammasome, less than 0.3 nM.

Consider `Cc1cc(C(F)(F)F)cc(O)c1-c1ccc(N2CC[C@H]3CCN(C)C[C@H]32)nn1` [Example 391, 2-[6-[(3aR,7aS)-6-methyl-3,3a,4,5,7,7a-hexahydro-2H-pyrrolo[2,3-c]pyridin-1-yl]pyridazin-3-yl]-3-methyl-5-(trifluoromethyl)phenol], for which the half-maximal inhibitory concentration (IC50) in assay [1] (Homo sapiens, THP-1, 3 h) was more than 10000 nM; on NLRP3 inflammasome, 31 nM.

In the case of `Cc1cc(C(F)(F)F)cc(O)c1-c1ccc(N2CC[C@H]3CN(C)C[C@H]32)nn1` (racemic) [Example 265, 2-[6-[rac-(3aS,6aS)-5-methyl-2,3,3a,4,6,6a-hexahydropyrrolo[3,4-b]pyrrol-1-yl]pyridazin-3-yl]-3-methyl-5-(trifluoromethyl)phenol], the IC50 was more than 10000 nM in assay [1] (Homo sapiens, THP-1, 3 h) and 314 nM at NLRP3 inflammasome.

The IC50 is the concentration that inhibits the measured activity by half.
